The record followed here is US20240270740A1, “INHIBITORS OF CYCLIC GMP-AMP SYNTHASE AND USES THEREOF” (Ventus Therapeutics U.S., Inc., priority 2022, published 2024).

hcGAS, sequence (Q8N884 whole entry): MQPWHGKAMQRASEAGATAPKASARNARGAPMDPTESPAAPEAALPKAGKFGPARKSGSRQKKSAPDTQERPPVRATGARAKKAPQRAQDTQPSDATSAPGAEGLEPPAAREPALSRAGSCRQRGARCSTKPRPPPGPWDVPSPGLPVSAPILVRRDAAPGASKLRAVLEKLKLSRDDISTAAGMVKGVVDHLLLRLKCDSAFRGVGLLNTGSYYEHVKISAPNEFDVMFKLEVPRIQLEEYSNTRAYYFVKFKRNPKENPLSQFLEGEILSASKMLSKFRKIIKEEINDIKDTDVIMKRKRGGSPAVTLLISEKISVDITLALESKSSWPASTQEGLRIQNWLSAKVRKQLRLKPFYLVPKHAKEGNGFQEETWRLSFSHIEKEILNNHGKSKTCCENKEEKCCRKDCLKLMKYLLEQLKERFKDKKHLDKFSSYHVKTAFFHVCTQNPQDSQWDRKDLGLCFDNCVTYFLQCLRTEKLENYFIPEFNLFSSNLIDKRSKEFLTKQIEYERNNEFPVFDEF

The experiment has as its target hcGAS (Homo sapiens, UniProt Q8N884). Put plainly: hcGAS LCMS assay (direct measurement of cGAMP production). The class given is biochemical. The settings on record: 0.5 nM hcGAS, 100 μM ATP, 100 μM GTP, 25 nM dsDNA, 4 h incubation. The protocol: cGAS catalyzes the cyclization of ATP and GTP to produce cGAMP, which is the activating ligand of STING. Human cGAS (hcGAS) inhibition can thus be quantified by measuring how much cGAMP is formed either indirectly, by monitoring ATP-depletion as in the hcGAS Kinase-Glo assay (as described below), or directly, such as using the hcGAS LCMS assay (as described below).
Compounds were tested for their h-cGAS inhibition activity using direct measurement of cGAMP production by LC/MS. Briefly, compounds were incubated with enzyme and substrates for 4 hours (see Table C), before the reaction was stopped with 3 volumes of 70/30 Acetonitrile/H2O mix containing 0.15 mM cGAMP-^13C10^5N5 as internal standard and mixed for […]. After centrifugation (3700 rpm, 10 min, 10° Celsius), […] of each reaction was collected and mixed to equal volume of Acetonitrile. Samples were then analyzed on Qexective (Column: XBridge BEH Amide Column, 130 Å, 3.5 μm, 3 mm×50 mm, Mobile phase A: 10 mM Ammonium acetate in 95/5% H2O/Acetonitrile (0.5% DMSO), Mobile phase B: Acetonitrile (0.5% DMSO).
The results of the assay, expressed as IC50 values, are reported in Table D with the following designations: A represents an IC50 value<0.005 μM; B represents an IC50 value≥0.005 μM and <0.02 μM, C represents an IC50 value≥0.02 μM and <0.06 μM; D represents an IC50 value≥0.06 and <0.2 μM; E represents an IC50 value≥0.2.
In general, IC50 refers to the concentration that inhibits the measured activity by half. The compound `COC[C@H](Cc1ccccc1)Nc1cc(C(=O)Nc2nnc(-n3nccc3C)s2)oc(=O)c1OC` [Compound 165, (S)-3-methoxy-4-((1-methoxy-3-phenylpropan-2-yl)amino)-N-(5-(5-methyl-1H-pyrazol-1-yl)-1,3,4-thiadiazol-2-yl)-2-oxo-2H-pyran-6-carboxamide] had an IC50 of 60 to 200 nM.
With `COc1c(N[C@@H]2CC[C@@H]2O)cc(C(=O)Nc2nnc(-c3c(Cl)ccn3C)s2)oc1=O` (single isomer, unassigned) [Compound 54], the IC50 was less than 5 nM.
`COc1c(N[C@@H]2CCCCC[C@@H]2O)cc(C(=O)Nc2nnc(-n3nccc3C)s2)oc1=O` (racemic) [Rac-26, 4-(((cis)-2-hydroxycycloheptyl)amino)-3-methoxy-N-(5-(5-methyl-1H-pyrazol-1-yl)-1,3,4-thiadiazol-2-yl)-2-oxo-2H-pyran-6-carboxamide] came in with an IC50 of less than 5 nM.
Next, `COCC(C)(C)COc1c(NC23CC(C2)C3)cc(C(=O)Nc2nnc(-n3nccc3C)s2)oc1=O` [Compound 149, 4-(bicyclo[1,1,1]pentan-1-ylamino)-(3-methoxy-2,2-dimethylpropoxy)-N-(5-(5-methyl-1H-pyrazol-1-yl)-1,3,4-thiadiazol-2-yl)-2-oxo-2H-pyran-6-carboxamide]: 5 to 20 nM; `COC[C@H](Nc1cc(C(=O)Nc2nnc(-n3nccc3C)s2)oc(=O)c1OC)C(C)C` [Compound 78, (R)-3-methoxy-4-((1-methoxy-3-methylbutan-2-yl)amino)-N-(5-(5-methyl-1H-pyrazol-1-yl)-1,3,4-thiadiazol-2-yl)-2-oxo-2H-pyran-6-carboxamide]: less than 5 nM; `COc1c(N[C@@H]2CCN(C)C2=O)cc(C(=O)Nc2nnc(-n3nccc3C)s2)oc1=O` (single isomer, unassigned) [72*]: 5 to 20 nM.
Take `COCC1(Nc2cc(C(=O)Nc3nnc(-n4nccc4C)s3)oc(=O)c2OC)CCC1` [Compound 196]: the IC50 lay within 5 to 20 nM.
In turn, `COCCN(CCO)c1cc(C(=O)Nc2nnc(-n3nccc3C)s2)oc(=O)c1OC` (single isomer, unassigned) [Compound 157, 4-((2-hydroxyethyl)(2-methoxyethyl)amino)-3-methoxy-N-(5-(5-methyl-1H-pyrazol-1-yl)-1,3,4-thiadiazol-2-yl)-2-oxo-2H-pyran-6-carboxamide] displayed an IC50 not below 200 nM.
The result for `COc1c(N[C@@H](C)[C@@H](C)OC)cc(C(=O)Nc2nnc(-n3nccc3C)s2)oc1=O` [Compound 207, 3-methoxy-4-(((2S,3R)-3-methoxybutan-2-yl)amino)-N-(5-(5-methyl-1H-pyrazol-1-yl)-1,3,4-thiadiazol-2-yl)-2-oxo-2H-pyran-6-carboxamide] reads 20 to 60 nM; that for `COc1c(NCCOC(F)F)cc(C(=O)Nc2nnc(-n3nccc3C)s2)oc1=O` [Compound 208, 4-((2-(difluoromethoxy)ethyl)amino)-3-methoxy-N-(5-(5-methyl-1H-pyrazol-1-yl)-1,3,4-thiadiazol-2-yl)-2-oxo-2H-pyran-6-carboxamide], 5 to 20 nM; that for `COc1c(N[C@@H]2CC[C@H](OC)C2)cc(C(=O)Nc2nnc(-n3nccc3C)s2)oc1=O` (single isomer, unassigned) [125*], 5 to 20 nM.
Next, `COc1c(N2C[C@H](OC)CC2=O)cc(C(=O)Nc2nnc(-n3nccc3C)s2)oc1=O` [Compound 154, (R)-3-methoxy-4-(4-methoxy-2-oxopyrrolidin-1-yl)-N-(5-(5-methyl-1H-pyrazol-1-yl)-1,3,4-thiadiazol-2-yl)-2-oxo-2H-pyran-6-carboxamide]: 20 to 60 nM.
Next, `COc1c(N[C@H]2CCCC[C@@H]2OC)cc(C(=O)Nc2nnc(-n3nccc3C)s2)oc1=O` [Compound 70, 3-methoxy-4-(((1S,2S)-2-methoxycyclohexyl)amino)-N-(5-(5-methyl-1H-pyrazol-1-yl)-1,3,4-thiadiazol-2-yl)-2-oxo-2H-pyran-6-carboxamide]: 5 to 20 nM; `COc1c(N[C@@H]2COC[C@@H]2OC)cc(C(=O)Nc2nnc(-n3nccc3C)s2)oc1=O` [Compound 162, 5-methoxy-4-{[(3R,4R)-4-methoxyoxolan-3-yl]amino}-N-[5-(5-methylpyrazol-1-yl)-1,3,4-thiadiazol-2-yl]-6-oxopyran-2-carboxamide]: 5 to 20 nM.
With `COC[C@@H](Nc1cc(C(=O)Nc2nnc(-n3nccc3C)s2)oc(=O)c1OC)C(C)C` [Compound 77, (S)-3-methoxy-4-((1-methoxy-3-methylbutan-2-yl)amino)-N-(5-(5-methyl-1H-pyrazol-1-yl)-1,3,4-thiadiazol-2-yl)-2-oxo-2H-pyran-6-carboxamide], the IC50 fell in the range of 5 to 20 nM.
In turn, `COc1c(N[C@H]2COC[C@H]2OC)cc(C(=O)Nc2nnc(-n3nccc3C)s2)oc1=O` [Compound 160, 3-Methoxy-4-(((3S,4S)-4-methoxytetrahydrofuran-3-yl)amino)-N-(5-(5-methyl-1H-pyrazol-1-yl)-1,3,4-thiadiazol-2-yl)-2-oxo-2H-pyran-6-carboxamide] displayed an IC50 of 5 to 20 nM.
The result for `CC[C@@H](COC)Nc1cc(C(=O)Nc2nnc(-n3nccc3C)s2)oc(=O)c1OC` (single isomer, unassigned) [192*] reads 5 to 20 nM; that for `COc1c(N[C@H](C)[C@H](C)OC)cc(C(=O)Nc2nnc(-n3nccc3C)s2)oc1=O` [Compound 166, 3-methoxy-4-(((2R,3S)-3-methoxybutan-2-yl)amino)-N-(5-(5-methyl-1H-pyrazol-1-yl)-1,3,4-thiadiazol-2-yl)-2-oxo-2H-pyran-6-carboxamide], less than 5 nM; that for `COc1c(NCCOC2CC2)cc(C(=O)Nc2nnc(-n3nccc3C)s2)oc1=O` [Compound 168, 4-((2-cyclopropoxyethyl)amino)-3-methoxy-N-(5-(5-methyl-1H-pyrazol-1-yl)-1,3,4-thiadiazol-2-yl)-2-oxo-2H-pyran-6-carboxamide], 60 to 200 nM.
The result for `COCCNc1cc(C(=O)Nc2nnc(-c3cscc3C#N)s2)oc(=O)c1OC` [Compound 138, N-[5-(4-cyanothiophen-3-yl)-1,3,4-thiadiazol-2-yl]-5-methoxy-4-[(2-methoxyethyl)amino]-6-oxopyran-2-carboxamide] reads not below 200 nM; that for `COC[C@@H]1CCC[C@@H]1Nc1cc(C(=O)Nc2nnc(-n3nccc3C)s2)oc(=O)c1OC` (single isomer, unassigned) [Compound 79*], 60 to 200 nM.
Consider `COc1c(N[C@H]2COC[C@@H]2OC)cc(C(=O)Nc2nnc(-n3nccc3C)s2)oc1=O` [Compound 13, 3-methoxy-4-(((3S,4R)-4-methoxytetrahydrofuran-3-yl)amino)-N-(5-(5-methyl-1H-pyrazol-1-yl)-1,3,4-thiadiazol-2-yl)-2-oxo-2H-pyran-6-carboxamide], for which the IC50 lay in the range of 5 to 20 nM.
Next, `COc1c(N[C@@H]2COC[C@H]2OC)cc(C(=O)Nc2nnc(-n3nccc3C)s2)oc1=O` [Compound 102, 3-methoxy-4-(((3R,4S)-4-methoxytetrahydrofuran-3-yl)amino)-N-(5-(5-methyl-1H-pyrazol-1-yl)-1,3,4-thiadiazol-2-yl)-2-oxo-2H-pyran-6-carboxamide]: 5 to 20 nM; `COc1c(N[C@H](C)[C@@H](C)OC)cc(C(=O)Nc2nnc(-n3nccc3C)s2)oc1=O` [Compound 161, 5-methoxy-4-{[(2R,3R)-3-methoxybutan-2-yl]amino}-N-[5-(5-methylpyrazol-1-yl)-1,3,4-thiadiazol-2-yl]-6-oxopyran-2-carboxamide]: less than 5 nM; `COc1c(N(C)[C@@H]2CCC[C@@H]2O)cc(C(=O)Nc2nnc(-n3nccc3C)s2)oc1=O` (racemic) [Rac-159, 4-(((cis)-2-hydroxycyclopentyl)(methyl)amino)-3-methoxy-N-(5-(5-methyl-1H-pyrazol-1-yl)-1,3,4-thiadiazol-2-yl)-2-oxo-2H-pyran-6-carboxamide]: 5 to 20 nM.
The result for `COc1c(NC[C@H]2CCCO2)cc(C(=O)Nc2nnc(-n3nccc3C)s2)oc1=O` [Compound 20, (R)-3-methoxy-N-(5-(5-methyl-1H-pyrazol-1-yl)-1,3,4-thiadiazol-2-yl)-2-oxo-4-(((tetrahydrofuran-2-yl)methyl)amino)-2H-pyran-6-carboxamide] reads 20 to 60 nM.
Next, `COCCNc1cc(C(=O)Nc2nnc(-c3c(C#N)csc3C)s2)oc(=O)c1OC` [Compound 140, N-(5-(4-cyano-2-methylthiophen-3-yl)-1,3,4-thiadiazol-2-yl)-3-methoxy-4-((2-methoxyethyl)amino)-2-oxo-2H-pyran-6-carboxamide]: 60 to 200 nM.
The compound `COC[C@@H](C1CC1)N1CCOc2c1cc(C(=O)Nc1nnc(-n3nccc3C)s1)oc2=O` [Compound 225, (R)-1-(1-cyclopropyl-2-methoxyethyl)-N-(5-(5-methyl-1H-pyrazol-1-yl)-1,3,4-thiadiazol-2-yl)-5-oxo-1,2,3,5-tetrahydropyrano[3,4-b][1,4]oxazine-7-carboxamide] came in with an IC50 of less than 5 nM.
